One series deals with BT474 cells. The experiment in a line: BT474 cell proliferation, BrdU-labeling. Conditions: Homo sapiens, BT-474, read-out: cell proliferation inhibition constant IC50, BT474. The class given is cell-based, human. The method, then:
Protein #21-His and Protein #23-His, were expressed and purified as described in Example 1. Effects of the recombinant binding proteins on BT474 cell proliferation were determined by measuring DNA synthesis using BrdU-labeling (BrdU, Cell Proliferation ELISA, Roche). Briefly, 10000 BT474 cells were seeded per well in a 96 well plate in 100 ul complete medium and incubated for 24 hours. Recombinant binding proteins or controls were added for an additional 72 hours. BrdU for cell labeling was added for the last 24 hours. Labeled (proliferating) cells were detected according to the manufactures protocol. The data were analyzed using the GraphPad prism software, plotting log [c] on the x-axis against OD450-602 nm on the y-axis. Data were fitted using a non-linear regression fit (log(antagonist) vs. response—Variable slope (four parameters)) deriving IC50 values.
Protein #21 and Protein #21-His were expressed and purified as described in Example 1. Standard BrdU cell proliferation assays were performed, well-known to the person skilled in the art. Briefly, effects on cell proliferation of Protein #21-His, other compounds, or Protein #21-His in combination with other compounds, were determined by measuring DNA synthesis using BrdU-labeling (BrdU, Cell Proliferation ELISA, Roche). Briefly, 10000 cells were seeded per well in a 96 well plate in 100 μl complete medium and incubated for 24 hours. Protein #21-His and/or compounds were added for an additional 72 hours. BrdU for cell labeling was added for the last 24 hours. Labeled (proliferating) cells were detected according to the manufactures protocol. The data were analyzed using the Graph Pad prism software (log [c] vs. OD450-602 nm plot). Data were fitted using a non-linear regression fit (log(antagonist) vs. response—variable slope (four parameters)).

Series [1] in a line: Storage stability in PBS analysed by SDS-PAGE. The class given is physicochemical. Conditions: for degradation upon prolonged incubation: in PBS at 10 mg/ml at 40° C. The method, then: “Improved storage stability” in the context of the present invention means the reduction of the amounts of a degradation band, preferably the reduction of the amount of degradation products, as detected by a Coomassie-stained SDS-PAGE occurring after storage at 40° C. for 1 month at 10 mg/ml in PBS, by at least 5%, 10%, 15%, 20%, 25%, 30%, 35%, 40%, 45%, 50%, or 50%. Methods to assess storage stability by SDS-PAGE are well known to the person skilled in the art. Examples of designed ankyrin repeat domains and recombinant binding proteins with improved storage stability properties are given in Examples 2 and 3.
Protein #13-His, Protein #14-His and Protein #15-His were prepared as described in Example 1, and samples were concentrated to 10 mg/ml in PBS. Protein #14-His and Protein #15-His where then stored for 1 month at −80° C. or at 40° C. in glass vials, followed by analysis on SDS 15% PAGE. […] These findings illustrate that Protein #14-His has improved storage stability compared to Proteins #13-His and Protein #15-His.
A storage stability improvement is also observed, when testing the storage stability of Protein #21 and Protein #22 (recombinant binding proteins consisting of the amino acid sequences corresponding to SEQ ID NOs: 21 and 22, respectively). Protein #21 and Protein #22 are prepared as described in Example 1, samples are concentrated to 10 mg/ml in PBS and stored for 1 month at −80° C. in or at 40° C. in glass vials, followed by analysis on standard size-exclusion chromatography.

The nature of series [2]: Pharmacokinetic analysis in mouse. The format is in vivo. The method, then:
The measurements shown in this example are the result of a half-life engineering effort as described in Example 11. Protein #21-His and Protein #23-His were expressed and purified as described in Example 1. The pharmacokinetic properties of the His-tagged proteins were assessed in mouse as described elsewhere (Zahnd, C., Kawe, M., Stumpp, M. T., de Pasquale, C., Tamaskovic, R., Nagy-Davidescu, G., Dreier, B., Schibli, R., Binz, H. K., Waibel, R., Plückthun, A., Cancer Res. 70, 1595-1605, 2010). […] Having SEQ ID NO: 16 present in the recombinant binding protein thus appears to be more favorable than having SEQ ID NO: 18 present.
Polypeptide linkers that link protein domains are well-known to the person skilled in the art. Gly-Ser-rich linkers are well-known from single-chain Fv antibody fragments, where they have proven to be most appropriate to link the two Fv polypeptide chains. […] Protein #26-His and Protein #27-His, were expressed and purified as described in Example 1. Pharmacokinetic analyses in mouse were performed as described in Example 8.
For the studies in this example Protein #21-His, Protein #24-His, Protein #28-His, Protein #29-His, and Protein #30-His were prepared according to Example 1. Protein #28-His was additionally PEGylated using a 40 kDa PEG moiety (NOF Sunbright GL2-400MA) by maleimid coupling of the PEG-moiety onto the free C-terminal cysteine of Protein #28-His, followed by purification to homogeneity using standard purification methods, procedures well known to the person skilled in the art. Pharmacokinetic analyses in mouse or cynomolgus monkey were performed as described in Examples 8 and 9.

The mark [3] stands for this setting: compound titrated alone or with Protein #21 at 2 nM.
Where [4] appears, read: Protein #21 was titrated, Trametinib (10^−5 M), Cobimetinib (10^−5 M) or Salirasib (3*10^−5 M).

The results in this text go back to US20210130420A1, “RECOMBINANT BINDING PROTEINS TARGETING HER2 AND SERUM ALBUMIN, AND THEIR USES” (Molecular Partners AG, priority 2016, published 2021).

Changes are numbered by the printed parent chain. Read-outs that look alike come from different tables or passages of the source.

As for `Cc1nc(NC(=O)N2CCC[C@H]2C(N)=O)sc1-c1ccnc(C(C)(C)C(F)(F)F)c1` [Alpelisib], the IC50 in the series with BT474 cells (setting [3]) turned out to be 2540 nM.
Same read-out and setting: the result for `Cc1c(CN2CCN(C(=O)[C@H](C)O)CC2)sc2c(N3CCOCC3)nc(-c3cnc(N)nc3)nc12` [Apitolisib] reads 204 nM.
With `O=C(c1ccc(F)c(F)c1Nc1ccc(I)cc1F)N1CC(O)([C@@H]2CCCCN2)C1` [Cobimetinib], the IC50 in the series on BT474 cells (setting [4]) is 1.02 nM.
`CC(=O)c1c(C)c2cnc(Nc3ccc(N4CCNCC4)cn3)nc2n(C2CCCC2)c1=O` [Palbociclib]: in the series on BT474 cells (setting [3]), the IC50 is 2600 nM.
With `CC(C)=CCC/C(C)=C/CC/C(C)=C/CSc1ccccc1C(=O)O` [Salirasib], the IC50 in the series on BT474 cells (setting [4]) worked out at 0.94 nM.
In the case of `Cc1nc(-c2cn3c(n2)-c2ccc(-c4cnn(C(C)(C)C(N)=O)c4)cc2OCC3)n(C(C)C)n1` [Taselisib], in the series with BT474 cells (setting [3]), the IC50 came out at 105 nM.
As to `CC(=O)Nc1cccc(-n2c(=O)n(C3CC3)c(=O)c3c(Nc4ccc(I)cc4F)n(C)c(=O)c(C)c32)c1` [Trametinib], the IC50 with BT474 cells (setting [4]) is 1.04 nM.

B1: Protein #12-His: SEQ ID NO: 12 with a His-tag; designed ankyrin repeat domain with binding specificity for serum albumin (WO2012/069654) (protein)
chain: GSDLGKKLLEAARAGQDDEVRILLKAGADVNAKDYFSHTPLHLAARNGHLKIVEVLLKAGADVNAKDFAGKTPLHLAANDGHLEIVEVLLKAGADVNAQDIFGKTPADIAADAGHEDIAEVLQKAA
modifications: His-tag; Designed ankyrin repeat domain
B1: the “degradation upon prolonged incubation” value in series [1] is listed as “degrade”.

B2: Protein #15-His: SEQ ID NO: 15 with a His-tag; designed ankyrin repeat domain with binding specificity for serum albumin (WO2012/069654) (protein)
chain: B1 chain with L24M, K25A, A26N, A92H
modifications: His-tag; Designed ankyrin repeat domain
Consider B2, for which the “stability upon storage at −80° C.” value in series [1] (10 mg/ml in PBS, 1 month at −80° C., SDS 15% PAGE) is listed as “equivalent stability”. Moreover, the “degradation upon prolonged incubation” value in series [1] is “degrade”.

B3: Protein #26-His: SEQ ID NO: 26 with a His-tag (SEQ ID NO: 1) fused to its N terminus (protein)
chain: MRGSHHHHHHGSDLGKKLLEAARAGQDDEVRILMANGADVNAKDYFSHTPLHLAARNGHLKIVEVLLKAGADVNAKDFAGKTPLHLAANDGHLEIVEVLLKHGADVNAQDIFGKTPADIAADAGHEDIAEVLQKAAGGGGSGGGGSGGGGSGGGGSGSDLGAKLLSDLGVKLLWAAARGQDDEVRILLAAGADVNAKDFQGITPLHIAAQSGHLEIVEVLLKAGADVNAKDVTGDTPLHLAAQHGHLVIVEVLLKAGADVNAQDERGWTPADLAADWGHEDIAEVLQKAAGGGGSGGGGSGSDLGKKLLEAARAGQDDEVRILMANGADVNAKDEYGLTPLYLATAHGHLEIVEVLLKNGADVNAVDAIGFTPLHLAAFIGHLEIAEVLLKHGADVNAQDKFGKTAFDISIGNGNEDLAEILQKAAGGGGSGGGGSGGGGSGGGGSGSDLGKKLLEAARAGQDDEVRILMANGADVNAKDYFSHTPLHLAARNGHLKIVEVLLKAGADVNAKDFAGKTPLHLAANDGHLEIVEVLLKHGADVNAQDIFGKTPADIAADAGHEDIAEVLQKAA
modifications: His-tag; Protein comprising four designed ankyrin repeat domains
For B3, the “injected dose remaining 48 hours after intravenous injection” value in series [2] was determined as 5.3%.

B4: Protein #27-His: SEQ ID NO: 27 with a His-tag (SEQ ID NO: 1) fused to its N terminus (protein)
chain: MRGSHHHHHHGSDLGKKLLEAARAGQDDEVRILMANGADVNAKDYFSHTPLHLAARNGHLKIVEVLLKAGADVNAKDFAGKTPLHLAANDGHLEIVEVLLKHGADVNAQDIFGKTPADIAADAGHEDIAEVLQKAAGSPTPTPTTPTPTPTTPTPTPTGSDLGAKLLSDLGVKLLWAAARGQDDEVRILLAAGADVNAKDFQGITPLHIAAQSGHLEIVEVLLKAGADVNAKDVTGDTPLHLAAQHGHLVIVEVLLKAGADVNAQDERGWTPADLAADWGHEDIAEVLQKAAGSPTPTPTTPTPTPTTPTPTPTGSDLGKKLLEAARAGQDDEVRILMANGADVNAKDEYGLTPLYLATAHGHLEIVEVLLKNGADVNAVDAIGFTPLHLAAFIGHLEIAEVLLKHGADVNAQDKFGKTAFDISIGNGNEDLAEILQKAAGSPTPTPTTPTPTPTTPTPTPTGSDLGKKLLEAARAGQDDEVRILMANGADVNAKDYFSHTPLHLAARNGHLKIVEVLLKAGADVNAKDFAGKTPLHLAANDGHLEIVEVLLKHGADVNAQDIFGKTPADIAADAGHEDIAEVLQKAA
modifications: His-tag; Protein comprising four designed ankyrin repeat domains
B4: in series [2], the “injected dose remaining 48 hours after intravenous injection” value was found to be 7% and the “terminal half-life, comparison” value is on record as “longer terminal half-life than Protein #26-His”.

B5: Protein #30-His: SEQ ID NO: 30 with a His-tag (SEQ ID NO: 1) fused to its N terminus (protein)
chain: MRGSHHHHHHGSDLGKKLLEAARAGQDDEVRILMANGADVNAKDYFSHTPLHLAARNGHLKIVEVLLKAGADVNAKDFAGKTPLHLAANDGHLEIVEVLLKHGADVNAQDIFGKTPADIAADAGHEDIAEVLQKAAGGGGSGGGGSGGGGSGGGGSGSDLGKKLLEAARAGQDDEVRILMANGADVNAKDYFSHTPLHLAARNGHLKIVEVLLKAGADVNAKDFAGKTPLHLAANDGHLEIVEVLLKHGADVNAQDIFGKTPADIAADAGHEDIAEVLQKAAGGGGSGGGGSGGGGSGGGGSGSDLGAKLLSDLGVKLLWAAARGQDDEVRILLAAGADVNAKDFQGITPLHIAAQSGHLEIVEVLLKAGADVNAKDVTGDTPLHLAAQHGHLVIVEVLLKAGADVNAQDERGWTPADLAADWGHEDIAEVLQKAAGGGGSGGGGSGSDLGKKLLEAARAGQDDEVRILMANGADVNAKDEYGLTPLYLATAHGHLEIVEVLLKNGADVNAVDAIGFTPLHLAAFIGHLEIAEVLLKHGADVNAQDKFGKTAFDISIGNGNEDLAEILQKAA
modifications: His-tag; Protein comprising four designed ankyrin repeat domains
On to B5, for which, in series [2] (Protein #30-His compared to Protein #29-His, FIG. 5B), the “mouse pharmacokinetic profile, two versus one serum albumin binding domain” value was “benefit of having two designed ankyrin repeat domains with binding specificity for serum albumin”.
